Experimental data reported in BindingDB's records for doi:10.1021/jm000497n (Welfide, 2001).

Molecular target: Chymotrypsin A (Bos taurus)
Assay: In vitro inhibitory activity was determined against bovine pancreas chymotrypsin

| Compound | Ki |
| --- | --- |
| Cc1cccc(-c2ncc(N)c(=O)n2CC(=O)NC(Cc2ccccc2)C(=O)C(F)(F)C(=O)NCC(N)=O)c1 (centres undefined) [4-[2-(5-Amino-6-oxo-2-m-tolyl-6H-pyrimidin-1-yl)-acetylamino]-2,2-difluoro-3-oxo-5-phenyl-pentanoic acid carbamoylmethyl-amide] | 1440 nM |
| Nc1cnc(-c2ccc(F)cc2)n(CC(=O)NC(Cc2ccccc2)C(=O)C(F)(F)C(=O)NCc2ccccc2)c1=O (centres undefined) [4-{2-[5-Amino-2-(4-fluoro-phenyl)-6-oxo-6H-pyrimidin-1-yl]-acetylamino}-2,2-difluoro-3-oxo-5-phenyl-pentanoic acid benzylamide] | 3280 nM |
| Cc1cccc(-c2ncc(N)c(=O)n2CC(=O)NC(Cc2ccccc2)C(=O)C(F)(F)C(=O)NCc2ccccc2)c1 (centres undefined) [4-[2-(5-Amino-6-oxo-2-m-tolyl-6H-pyrimidin-1-yl)-acetylamino]-2,2-difluoro-3-oxo-5-phenyl-pentanoic acid benzylamide] | 1920 nM |
| Cc1cccc(-c2ncc(N)c(=O)n2CC(=O)NC(Cc2ccccc2)C(=O)C(F)(F)C(=O)NCCC(=O)O)c1 (centres undefined) [3-{4-[2-(5-Amino-6-oxo-2-m-tolyl-6H-pyrimidin-1-yl)-acetylamino]-2,2-difluoro-3-oxo-5-phenyl-pentanoylamino}-propionic acid] | 1430 nM |
